According to patent publication US20250186453A1, “COMBINATION THERAPIES COMPRISING A SOS1 INHIBITOR AND A MEK INHIBITOR” (Mirati Therapeutics, Inc., priority 2022, published 2025):

Tests used:
[1] = tested on: LN229 cells harboring the A72S mutation (PTPN11 A72S); assay: LN229 tumor xenograft model, SOS1 inhibitor - MEK inhibitor combination; format: in vivo, nude/nude mice; conditions: for tumor growth inhibition: LN229 tumors, day 28, single agent, MRTX0902 50 mg/kg twice daily, VS-6766 0.3 mg/kg twice daily Monday, Wednesday, Friday; for Average Tumor Volumes of LN229 Tumor Bearing Mice: p.o., MRTX0902 50 mg/kg BID, VS-6766 0.3 mg/kg BID MWF (Q2D), mean of 5 mice
Experimental: (§1) Immunocompromised nude/nude mice are inoculated in the right hind flank with LN229 cells harboring the A72S mutation. When tumor volumes reach approximately 150 mm3 in size, the mice are divided into four groups of 5 mice each. The first group is administered vehicle only. […] The fourth group is administered the single agent dose of the SOS1 inhibitor in combination with the single agent dose of the MEK inhibitor. The treatment period was 28 days. Tumor volumes are measured using a caliper every two—three days and tumor volumes are calculated by the formula: 0.5×(Length×Width)2.
[0153]20 nude/nude mice were inoculated in the right hind limb with 5×10^6 LN229 cells. When tumor volume reached ˜150 mm3 (Study Day 0), 5 mice in each of the four groups were administered p.o. daily for 28 days: vehicle only (0.5% MC (4000 cps)/0.2% Tween80 in water), 50 mg/kg BID of the SOS1 inhibitor (R)-2-methyl-3-(1-((4-methyl-7-morpholinopyrido[3,4-d]pyridazin-1-yl)amino)ethyl)benzonitrile (MRTX0902) (0.5% MC (4000 cps)/0.2% Tween80 in water), 0.3 mg/kg BID Q2D of MEK inhibitor VS-6766 (5% DMSO, 10% HPCD in water), or 50 mg/kg BID MRTX0902 and 0.3 mg/kg BID Q2D. Tumor volumes, measured at pre-specified days, for the five mice per group were averaged and are reported for LN229 cells in Table 1 and FIG. 1.

[2] = tested on: NCI-H1435 cells harboring NF1 K615N mutation; assay: NCI-H1435 tumor xenograft model, SOS1 inhibitor - MEK inhibitor combination; format: in vivo, nude/nude mice; conditions: for tumor growth inhibition: NCI-H1435 tumors, day 27, single agent, MRTX0902 50 mg/kg twice daily, VS-6766 0.3 mg/kg twice daily Monday, Wednesday, Friday; for Average Tumor Volumes of NCI-H1435 Tumor Bearing Mice: p.o., MRTX0902 50 mg/kg BID, VS-6766 0.3 mg/kg BID MWF (Q2D), mean of 5 mice
Experimental: as §1, with “with NCI-H1435” for “with LN229”, “harboring NF1 K615N” for “harboring the A72S”, “administered a” for “administered the”, “with a” for “with the”, “was 27” for “was 28”
20 nude/nude mice were inoculated in the right hind limb with 5×10^6 NCI-H1435 cells. When tumor volume reached ˜150 mm3 (Study Day 0), 5 mice in each of the four groups were administered p.o. daily for 27 days: vehicle only (0.5% MC (4000 cps)/0.2% Tween80 in water), 50 mg/kg BID of the SOS1 inhibitor (R)-2-methyl-3-(1-((4-methyl-7-morpholinopyrido[3,4-d]pyridazin-1-yl)amino)ethyl)benzonitrile (MRTX0902) (0.5% MC (4000 cps)/0.2% Tween80 in water), 0.3 mg/kg BID Q2D of MEK inhibitor VS-6766 (5% DMSO, 10% HPCD in water), or 50 mg/kg BID MRTX0902 and 0.3 mg/kg BID Q2D VS-6766. Tumor volumes, measured at pre-specified days, for the five mice per group were averaged and are reported for NCI-H1435 cells in Table 2 and FIG. 2.

| Compound | tumor growth inhibition [1] [%] | Average Tumor Volumes of LN229 Tumor Bearing Mice ([1]; Study Day 0 (start of dosing)) [mm^3] | Average Tumor Volumes of LN229 Tumor Bearing Mice ([1]; Study Day 4) [mm^3] | Average Tumor Volumes of LN229 Tumor Bearing Mice ([1]; Study Day 7) [mm^3] | Average Tumor Volumes of LN229 Tumor Bearing Mice ([1]; Study Day 12) [mm^3] | Average Tumor Volumes of LN229 Tumor Bearing Mice ([1]; Study Day 15) [mm^3] | Average Tumor Volumes of LN229 Tumor Bearing Mice ([1]; Study Day 18) [mm^3] | Average Tumor Volumes of LN229 Tumor Bearing Mice ([1]; Study Day 25) [mm^3] | Average Tumor Volumes of LN229 Tumor Bearing Mice ([1]; Study Day 28) [mm^3] | tumor growth inhibition [2] [%] | Average Tumor Volumes of NCI-H1435 Tumor Bearing Mice ([2]; Study Day 0 (start of dosing)) [mm^3] | Average Tumor Volumes of NCI-H1435 Tumor Bearing Mice ([2]; Study Day 3) [mm^3] | Average Tumor Volumes of NCI-H1435 Tumor Bearing Mice ([2]; Study Day 6) [mm^3] | Average Tumor Volumes of NCI-H1435 Tumor Bearing Mice ([2]; Study Day 10) [mm^3] | Average Tumor Volumes of NCI-H1435 Tumor Bearing Mice ([2]; Study Day 13) [mm^3] | Average Tumor Volumes of NCI-H1435 Tumor Bearing Mice ([2]; Study Day 17) [mm^3] | Average Tumor Volumes of NCI-H1435 Tumor Bearing Mice ([2]; Study Day 20) [mm^3] | Average Tumor Volumes of NCI-H1435 Tumor Bearing Mice ([2]; Study Day 24) [mm^3] | Average Tumor Volumes of NCI-H1435 Tumor Bearing Mice ([2]; Study Day 27) [mm^3] |
| --- | --- | --- | --- | --- | --- | --- | --- | --- | --- | --- | --- | --- | --- | --- | --- | --- | --- | --- | --- |
| Cc1c(C#N)cccc1[C@@H](C)Nc1nnc(C)c2cnc(N3CCOCC3)cc12 [MRTX0902, (R)-2-methyl-3-(1-((4-methyl-7-morpholinopyrido[3,4-d]pyridazin-1-yl)amino)ethyl)benzonitrile] | 37.6 | 151 | 174 | 199 | 248 | 310 | 374 | 462 | 525 | 49.8 | 164 | 241 | 292 | 333 | 417 | 437 | 474 | 583 | 608 |
| CNS(=O)(=O)Nc1nccc(Cc2c(C)c3ccc(Oc4ncccn4)cc3oc2=O)c1F [VS-6766, 3-[[3-fluoro-2-(methylsulfamoylamino)pyridin-4-yl]methyl]-4-methyl-7-pyrimidin-2-yloxychromen-2-one] | 92.5 | 151 | 143 | 137 | 120 | 140 | 186 | 225 | 196 | 76.4 | 166 | 254 | 296 | 307 | 281 | 286 | 322 | 349 | 371 |
